Key:
Format in all cases: in vivo
[1] = system: barnyardgrass (Echinochloa crus-galli); assay: Test A preemergence, barnyardgrass; details: 0 to 100 scale (0 no effect, 100 complete control)
How it was run: (§1)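 Species planted together in a loam soil and sand blend received compound either as a preemergence soil spray or as a postemergence treatment when 2–10 cm tall with one to two leaves. About ten days later, injury was visually rated relative to untreated plants on a 0–100 scale.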

[2] = system: large crabgrass (Digitaria sanguinalis); assay: Test A preemergence, large crabgrass; details: 0 to 100 scale (0 no effect, 100 complete control)
How it was run: as §1

[3] = system: giant foxtail (Setaria faberi); assay: Test A preemergence, giant foxtail; details: 0 to 100 scale (0 no effect, 100 complete control)
How it was run: as §1

[4] = system: morningglory (Ipomoea spp.); assay: Test A preemergence, morningglory; details: 0 to 100 scale (0 no effect, 100 complete control)
How it was run: as §1

[5] = system: pigweed (Amaranthus retroflexus); assay: Test A preemergence, pigweed; details: 0 to 100 scale (0 no effect, 100 complete control)
How it was run: as §1

[6] = system: velvetleaf (Abutilon theophrasti); assay: Test A preemergence, velvetleaf; details: 0 to 100 scale (0 no effect, 100 complete control)
How it was run: as §1

[7] = system: wheat (Triticum aestivum); assay: Test A preemergence, wheat; details: 0 to 100 scale (0 no effect, 100 complete control)
How it was run: as §1

[8] = system: corn (Zea mays); assay: Test A preemergence, corn; details: 0 to 100 scale (0 no effect, 100 complete control)
How it was run: as §1

[9] = system: barnyardgrass (Echinochloa crus-galli); assay: Test A postemergence, barnyardgrass; details: 0 to 100 scale (0 no effect, 100 complete control)
How it was run: as §1

[10] = system: large crabgrass (Digitaria sanguinalis); assay: Test A postemergence, large crabgrass; details: 0 to 100 scale (0 no effect, 100 complete control)
How it was run: as §1

[11] = system: giant foxtail (Setaria faberi); assay: Test A postemergence, giant foxtail; details: 0 to 100 scale (0 no effect, 100 complete control)
How it was run: as §1

[12] = system: morningglory (Ipomoea spp.); assay: Test A postemergence, morningglory; details: 0 to 100 scale (0 no effect, 100 complete control)
How it was run: as §1

[13] = system: pigweed (Amaranthus retroflexus); assay: Test A postemergence, pigweed; details: 0 to 100 scale (0 no effect, 100 complete control)
How it was run: as §1

[14] = system: velvetleaf (Abutilon theophrasti); assay: Test A postemergence, velvetleaf; details: 0 to 100 scale (0 no effect, 100 complete control)
How it was run: as §1

[15] = system: wheat (Triticum aestivum); assay: Test A postemergence, wheat; details: 0 to 100 scale (0 no effect, 100 complete control)
How it was run: as §1

[16] = system: corn (Zea mays); assay: Test A postemergence, corn; details: 0 to 100 scale (0 no effect, 100 complete control)
How it was run: as §1

[17] = system: rice (Oryza sativa); assay: Test B flooded paddy test, rice; details: Flood, scale 0 to 100
How it was run: (§2)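 Step one: raise plants to 2 leaves. Step two: flood pots 3 cm over the soil and apply compound into the water, keeping this depth. Step three: after 13–15 greenhouse days, score visually versus controls, 0–100, where 100 means complete control.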

[18] = system: umbrella sedge (Cyperus difformis); assay: Test B flooded paddy test, umbrella sedge; details: Flood, scale 0 to 100
How it was run: as §2

[19] = system: ducksalad (Heteranthera limosa); assay: Test B flooded paddy test, ducksalad; details: Flood, scale 0 to 100
How it was run: as §2

[20] = system: barnyardgrass (Echinochloa crus-galli); assay: Test B flooded paddy test, barnyardgrass; details: Flood
How it was run: as §2

[21] = 250 g ai/ha, scale 0 to 100 (0 no effect, 100 complete control)

SMILES: CC1(C)CC([S+]([O-])Cc2c(C(F)(F)F)nc3n(c2=O)CCC3)=NO1 (stereo not drawn) [Compound 10, 3-[[(4,5-dihydro-5,5-dimethyl-3-isoxazolyl)sulfinyl]methyl]-7,8-dihydro-2-(trifluoromethyl)pyrrolo[1,2-α]pyrimidin-4(6H)-one]
- Plant response rating, Barnyardgrass ([1]; 125 g ai/ha): 0
- Plant response rating, Barnyardgrass ([1]; 500 g ai/ha): 70
- Plant response rating, Crabgrass, Large ([2]; 125 g ai/ha): 0
- Plant response rating, Crabgrass, Large ([2]; 500 g ai/ha): 80
- Plant response rating, Foxtail, Giant ([3]; 125 g ai/ha): 20
- Plant response rating, Foxtail, Giant ([3]; 500 g ai/ha): 80
- Plant response rating, Morningglory ([4]; 125 g ai/ha): 0
- Plant response rating, Morningglory ([4]; 500 g ai/ha): 0
- Plant response rating, Pigweed ([5]; 125 g ai/ha): 0
- Plant response rating, Pigweed ([5]; 500 g ai/ha): 0
- Plant response rating, Velvetleaf ([6]; 125 g ai/ha): 0
- Plant response rating, Velvetleaf ([6]; 500 g ai/ha): 0
- Plant response rating, Wheat ([7]; 125 g ai/ha): 0
- Plant response rating, Wheat ([7]; 500 g ai/ha): 30
- Plant response rating, Corn ([8]; 125 g ai/ha): 0
- Plant response rating, Corn ([8]; 500 g ai/ha): 10
- Plant response rating, Barnyardgrass ([9]; 125 g ai/ha): 30
- Plant response rating, Barnyardgrass ([9]; 500 g ai/ha): 80
- Plant response rating, Crabgrass, Large ([10]; 125 g ai/ha): 40
- Plant response rating, Crabgrass, Large ([10]; 500 g ai/ha): 70
- Plant response rating, Foxtail, Giant ([11]; 125 g ai/ha): 30
- Plant response rating, Foxtail, Giant ([11]; 500 g ai/ha): 70
- Plant response rating, Morningglory ([12]; 125 g ai/ha): 10
- Plant response rating, Morningglory ([12]; 500 g ai/ha): 20
- Plant response rating, Pigweed ([13]; 125 g ai/ha): 10
- Plant response rating, Pigweed ([13]; 500 g ai/ha): 30
- Plant response rating, Velvetleaf ([14]; 125 g ai/ha): 10
- Plant response rating, Velvetleaf ([14]; 500 g ai/ha): 40
- Plant response rating, Wheat ([15]; 125 g ai/ha): 0
- Plant response rating, Wheat ([15]; 500 g ai/ha): 20
- Plant response rating, Corn ([16]; 125 g ai/ha): 0
- Plant response rating, Corn ([16]; 500 g ai/ha): 20
- Plant response rating, Rice ([17]; 31 g ai/ha): 0
- Plant response rating, Rice ([17]; 62 g ai/ha): 0
- Plant response rating, Rice ([17]; 125 g ai/ha): 0
- Plant response rating, Rice ([17]; 250 g ai/ha): 0
- Plant response rating, Sedge, Umbrella ([18]; 31 g ai/ha): 0
- Plant response rating, Sedge, Umbrella ([18]; 62 g ai/ha): 0
- Plant response rating, Sedge, Umbrella ([18]; 125 g ai/ha): 0
- Plant response rating, Sedge, Umbrella ([18]; 250 g ai/ha): 0
- Plant response rating, Ducksalad ([19]; 31 g ai/ha): 0
- Plant response rating, Ducksalad ([19]; 62 g ai/ha): 0
- Plant response rating, Ducksalad ([19]; 125 g ai/ha): 0
- Plant response rating, Ducksalad ([19]; 250 g ai/ha): 0
- Plant response rating, Barnyardgrass ([20]; 31 g ai/ha, scale 0 to 100): 0
- Plant response rating, Barnyardgrass ([20]; 62 g ai/ha, scale 0 to 100): 0
- Plant response rating, Barnyardgrass ([20]; 125 g ai/ha, scale 0 to 100): 0
- Plant response rating, Barnyardgrass [20, 21]: 0

SMILES: Cn1c(=O)c(C[S+]([O-])C2=NOC(C)(C)C2)nc2ccccc21 (stereo not shown) [Compound 24]
- Plant response rating, Barnyardgrass ([1]; 125 g ai/ha): 0
- Plant response rating, Barnyardgrass ([1]; 500 g ai/ha): 0
- Plant response rating, Crabgrass, Large ([2]; 125 g ai/ha): 0
- Plant response rating, Crabgrass, Large ([2]; 500 g ai/ha): 0
- Plant response rating, Foxtail, Giant ([3]; 125 g ai/ha): 0
- Plant response rating, Foxtail, Giant ([3]; 500 g ai/ha): 0
- Plant response rating, Morningglory ([4]; 125 g ai/ha): 0
- Plant response rating, Morningglory ([4]; 500 g ai/ha): 0
- Plant response rating, Pigweed ([5]; 125 g ai/ha): 0
- Plant response rating, Pigweed ([5]; 500 g ai/ha): 0
- Plant response rating, Velvetleaf ([6]; 125 g ai/ha): 0
- Plant response rating, Velvetleaf ([6]; 500 g ai/ha): 0
- Plant response rating, Wheat ([7]; 125 g ai/ha): 0
- Plant response rating, Wheat ([7]; 500 g ai/ha): 0
- Plant response rating, Corn ([8]; 125 g ai/ha): 0
- Plant response rating, Corn ([8]; 500 g ai/ha): 0
- Plant response rating, Barnyardgrass ([9]; 125 g ai/ha): 0
- Plant response rating, Barnyardgrass ([9]; 500 g ai/ha): 0
- Plant response rating, Crabgrass, Large ([10]; 125 g ai/ha): 0
- Plant response rating, Crabgrass, Large ([10]; 500 g ai/ha): 0
- Plant response rating, Foxtail, Giant ([11]; 125 g ai/ha): 0
- Plant response rating, Foxtail, Giant ([11]; 500 g ai/ha): 0
- Plant response rating, Morningglory ([12]; 125 g ai/ha): 0
- Plant response rating, Morningglory ([12]; 500 g ai/ha): 0
- Plant response rating, Pigweed ([13]; 125 g ai/ha): 0
- Plant response rating, Pigweed ([13]; 500 g ai/ha): 0
- Plant response rating, Velvetleaf ([14]; 125 g ai/ha): 0
- Plant response rating, Velvetleaf ([14]; 500 g ai/ha): 0
- Plant response rating, Wheat ([15]; 125 g ai/ha): 0
- Plant response rating, Wheat ([15]; 500 g ai/ha): 0
- Plant response rating, Corn ([16]; 125 g ai/ha): 0
- Plant response rating, Corn ([16]; 500 g ai/ha): 0
- Plant response rating, Rice ([17]; 62 g ai/ha): 30
- Plant response rating, Rice ([17]; 250 g ai/ha): 30
- Plant response rating, Sedge, Umbrella ([18]; 62 g ai/ha): 20
- Plant response rating, Sedge, Umbrella ([18]; 250 g ai/ha): 30
- Plant response rating, Ducksalad ([19]; 62 g ai/ha): 0
- Plant response rating, Ducksalad ([19]; 250 g ai/ha): 30
- Plant response rating, Barnyardgrass ([20]; 62 g ai/ha, scale 0 to 100): 0
- Plant response rating, Barnyardgrass [20, 21]: 0

Reference: patent US20100099561A1, “HETEROBICYCLIC ALKYLTHIO-BRIDGED ISOXAZOLINES” (E.I. DU PONT DE NEMOURS AND COMPANY, priority 2008, published 2010)
